{"source": "patent US8436151B2", "about": "“Indoleamine 2,3-dioxygenase-2 antibodies” (Lankenau Institute for Medical Research, priority 2006, dated 2013)", "key": {"[1]": {"tested_on": "allogeneic mouse concepti", "details": "Mellor et al. 2001; Munn et al. 1998; cited from earlier work"}, "[2]": {"molecular_target": "T1, IDO2 (Mus musculus, UniProt Q8R0V5)", "T1 construct": "The complete coding regions of murine IDO1 and IDO2 were cloned in-frame with the V5/His TAG coding region in pcDNA4/TO; expressed in transfected cells; host or cells: T-REx-293 cells (Invitrogen), pcDNA4/TO-muIDO2, doxycycline-induced", "T1 sequence (Q8R0V5 1-405)": "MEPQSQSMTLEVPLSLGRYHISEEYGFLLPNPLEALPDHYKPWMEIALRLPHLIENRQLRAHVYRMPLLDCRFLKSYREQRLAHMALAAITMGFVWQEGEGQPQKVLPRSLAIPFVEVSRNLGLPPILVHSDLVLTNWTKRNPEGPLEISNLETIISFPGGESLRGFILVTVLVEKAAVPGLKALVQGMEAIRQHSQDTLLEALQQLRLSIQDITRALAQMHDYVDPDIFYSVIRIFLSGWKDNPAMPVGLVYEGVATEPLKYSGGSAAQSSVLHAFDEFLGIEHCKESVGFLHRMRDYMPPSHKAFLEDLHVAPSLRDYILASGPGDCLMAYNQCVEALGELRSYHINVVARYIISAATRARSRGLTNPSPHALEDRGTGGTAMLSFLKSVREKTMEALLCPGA", "test": "Cell-based kynurenine detection assay in IDO2 expressing T-REx cells", "parameters": "species or system murine", "details": "doxycycline-induced T-REx cells, increasing concentrations, 5 days (FIG. 8B)", "method": "This assay measures the product of the indoleamine 2,3-dioxygenase conversion of L-tryptophan to N-formyl-kynurenine by acid hydrolysis to kynurenine, which is measured indirectly though the absorbance (480 nm) of imine produced by the reaction of the aromatic amino group of klynurenine with p-dimethylaminobenzaldehyde (Ehrlich's reagent) as described by Takikawa et al. (J. Biol. Chem. (1988) 263:2041-2048). Typically, 200 μL of media from the test sample is combined with 12.5 μL of 30% TCA and incubated at 50° C. for 30 minutes. Evaporation was avoided by sealing the rim of the plate or tubes with parafilm. Samples are clarified by centrifugation for 10 minutes at 3-10K rpm. 100 μL of the supernatant was removed to a fresh well in an assay plate and mixed with 100 μL of fresh Ehrlich's reagent (2% p-dimethylaminobenzaldehyde w/v with glacial acetic acid). The plates were incubated for 10-30 minutes at room temperature and the absorbance was read at 490 nm. Typically, assays were performed in triplicate and the data analyzed using Excel software program (Microsoft). […] Typically, control values were averaged and subtracted from the sample values. The complete coding regions of murine IDO1 and IDO2 were cloned in-frame with the […] TAG coding region in pcDNA4/TO (Invitrogen) which contains a regulatory region that is repressed by the tetracyclin regulated repressor (TetR). The complete coding regions of IDO1 and IDO2 were generated using gene specific primers [IDO2 5'[…] ID NO: 16) and IDO1 5'[…] ID NO: 17)] and 3' primers that were gene specific and removed the termination codon [IDO[…] ID NO: 18) and IDO1 minus stop [NT] ID NO: 19)]. The IDO1 and 2 coding regions where then cloned in-frame with the […] carboxyl terminal Tag in the pcDNA4 TO vector (Invitrogen). IDO2 expressing 293 cells metabolize tryptophan and can be inhibited by 1-methyl-[…]). […] The cells were maintained in growth media plus supplements for 5 days, after which the media was harvested and subjected to analysis for the presence of kynurenine."}, "[3]": {"tested_on": "purified recIDO2 proteins (rmuIDO2 or rhuIDO2)", "test": "Enzyme assay of purified recombinant IDO2 (kynurenine formed from L-tryptophan)", "type": "biochemical, murine and human", "details": "varying amounts 0-100 μM (FIG. 25)", "method": "IDO2 activity was measured as the amount of kynurenine formed from L-tryptophan. The standard assay conditions consisted of a mixture containing 50 mM Pipes pH 6.5, between 50 and 600 nM of rmuIDO2 or rhuIDO2 (where 100 nM of rIDO2 is approximately 5.5 μg protein per mL reaction), 200 U catalase (0.2 mg/mL, sp act. ˜1000 U/mg), 200 μM L-tryptophan, 10 μM methylene blue and 20 mM ascorbic acid. The mixture was incubated at various times ranging from 15 minutes to 4 hours at 37° C. before the reaction was stopped by adding trichloroacetic acid (TCA) to 3% final. The samples were then heated to 50-60° C. for 30 minutes to convert N-formyl-kynureneine to kynurenine, clarified by centrifugation, and supernatants (100 μL) were removed to a new dish, mixed with 100 μL Ehrlich's reagent (2% p-dimethylaminobenzaldehyde w/v in glacial acetic acid), and incubated 10-30 minutes at room temperature. Absorbance at 490 nm was determined on a plate reader and the data collected and analyzed using Excel software (Microsoft). Typically, samples were analyzed in triplicate and control values were typically averaged and subtracted from sample values. Enzyme activity was estimated based on the conversion of tryptophan to kynurenine using linear regression analysis based on an absorbance standard curve derived from assay measurements on known amounts of kynurenine."}, "[4]": {"tested_on": "IDO2 activation of LIP", "test": "Western blot of LIP (NFIL-6) expression in IDO2 expressing T-REx cells", "type": "cell-based", "details": "for inhibition of IDO2 activation of LIP: Western blot (FIG. 9B)", "method": "T-REx™ cells (control) and T-REx™ cells expressing IDO1 were either uninduced or induced with doxycycline in the presence or absence of added tryptophan (100 μM). […] T-REx™ cells (control) and T-REx™ cells expressing IDO2 were either uninduced or induced with doxycycline in the presence or absence of added tryptophan. Cells were also optionally treated with the D, L and mixed DL racemic isomers of 1-methyl-tryptophan, (1M-D-T, 1M-L-T and 1M-LD-T, respectively). […] T-REx™ cells expressing IDO2 were either uninduced or induced with doxycycline in the presence or absence of added tryptophan.\nCell lysates were prepared as follows: Cells were removed from the dish by scrapping or pipetting in PBS and collected by centrifugation (2000 rpm/5 minutes). The supernatant was discarded and the cell pellet was lysed in RIPA buffer [50 mM Tris-HCl pH 7.4/150 mM NaCl/1% Triton x-100/1% Sodium deoxycholate/0.1% SDS] plus a protease inhibitor cocktail (Calbiochem Cat #539134). Typically 5×10^5 cells were resuspended in 200 μL of RIPA buffer. Cells lysates were vortexed and incubated on ice or frozen at −20° C. until use. Prior to use lysates were clarified by centrifugation (10,000 rpm/15 minutes) and heat denatured at 95° C. in SDS/sample buffer (100 mM Tris/25% glycerol/2% SDS/0.01% bromophenol blue/25 mM DTT). Proteins were separated by PAGE using NuPAGE® Gels (Invitrogen) and transferred at 100 Volts on to Immobilon-NC Nitrocellulose membranes (Millipore, Billerica, Mass., Cat #HAHY00010) in transfer buffer (25 mM Tris pH 8.3/192 mM glycine/20% methanol). […] For secondary antibody applications, the secondary antibody containing HRP was added in blocking buffer at the appropriate dilution, incubated by shaking at room temperature for 1 hour, and washed 5-6 times in PBS/0.1% Tween. The western membranes were developed by Chemiluminescence using SuperSignal® West Pico substrate (Pierce, Rockford, Ill., Cat #34078), exposed to autography film for an appropriate period of time (3 seconds to 18 hours), and developed."}, "[5]": {"tested_on": "tumor", "details": "background statement; listed as L-1MT; cited from earlier work"}, "[6]": {"molecular_target": "T2, IDO1 (Mus musculus, UniProt P28776)", "T2 construct": "The complete coding regions of murine IDO1 and IDO2 were cloned in-frame with the V5/His TAG coding region in pcDNA4/TO; expressed in transfected cells; host or cells: T-REx-293 cells (Invitrogen), pcDNA4/TO-muIDO1, doxycycline-induced", "T2 sequence (P28776 whole entry)": "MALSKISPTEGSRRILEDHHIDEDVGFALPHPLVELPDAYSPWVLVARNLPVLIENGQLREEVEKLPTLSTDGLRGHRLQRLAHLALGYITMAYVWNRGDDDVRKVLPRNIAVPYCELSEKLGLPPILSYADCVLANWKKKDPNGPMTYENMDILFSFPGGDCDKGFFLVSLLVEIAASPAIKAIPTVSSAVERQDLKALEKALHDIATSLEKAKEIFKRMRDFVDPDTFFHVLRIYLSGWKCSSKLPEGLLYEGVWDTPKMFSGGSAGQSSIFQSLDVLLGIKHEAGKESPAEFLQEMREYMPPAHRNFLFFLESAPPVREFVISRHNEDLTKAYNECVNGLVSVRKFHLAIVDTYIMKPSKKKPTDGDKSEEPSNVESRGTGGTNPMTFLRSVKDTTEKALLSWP", "type": "cell-based, murine", "method": "This assay measures the product of the indoleamine 2,3-dioxygenase conversion of L-tryptophan to N-formyl-kynurenine by acid hydrolysis to kynurenine, which is measured indirectly though the absorbance (480 nm) of imine produced by the reaction of the aromatic amino group of klynurenine with p-dimethylaminobenzaldehyde (Ehrlich's reagent) as described by Takikawa et al. (J. Biol. Chem. (1988) 263:2041-2048). Typically, 200 μL of media from the test sample is combined with 12.5 μL of 30% TCA and incubated at 50° C. for 30 minutes. Evaporation was avoided by sealing the rim of the plate or tubes with parafilm. Samples are clarified by centrifugation for 10 minutes at 3-10K rpm. 100 μL of the supernatant was removed to a fresh well in an assay plate and mixed with 100 μL of fresh Ehrlich's reagent (2% p-dimethylaminobenzaldehyde w/v with glacial acetic acid). The plates were incubated for 10-30 minutes at room temperature and the absorbance was read at 490 nm. Typically, assays were performed in triplicate and the data analyzed using Excel software program (Microsoft). Background/control samples were typically derived from media from uninduced cells or cells that lack IDO1/2 expression vectors. Typically, control values were averaged and subtracted from the sample values. […]"}}, "note": "Entries after “also recorded” stand apart in the source; their conditions may differ.", "data": [{"smiles": "Cn1cc(CC(N)C(=O)O)c2ccccc21", "note": "(racemic) [1M-LD-T, 1-Methyl-DL-Tryptophan]", "values": [{"measurement": "rejection of allogeneic mouse concepti", "setting": "[1]", "result": "elicit MHC-restricted and T cell-mediated rejection of allogeneic mouse concepti"}, {"measurement": "kynurenine production in IDO2 expressing cells", "setting": "[2]", "result": "no changes in kynurenine levels"}]}, {"smiles": "Cn1cc(C[C@@H](N)C(=O)O)c2ccccc21", "note": "[1M-D-T, 1-Methyl-D-Tryptophan]", "values": [{"measurement": "inhibition of purified recIDO2 proteins", "setting": "[3]", "result": "inhibited"}, {"measurement": "kynurenine production in IDO2 expressing cells", "setting": "[2]", "result": "decrease in kynurenine production in the IDO2 expressing cells was observed only with 1M-D-T in a dose dependent manner"}, {"measurement": "inhibition of IDO2 activation of LIP", "setting": "[4]", "result": "inhibited"}, {"measurement": "activation of GCN2 kinase and subsequent altered LIP expression", "setting": "[4]; summary statement", "result": "blocks the activation of GCN2 kinase and subsequent altered LIP expression"}]}, {"smiles": "Cn1cc(C[C@H](N)C(=O)O)c2ccccc21", "note": "[1M-L-T, 1-Methyl-L-Tryptophan]", "values": [{"measurement": "antitumor activity", "setting": "[5]", "result": "exhibits a characteristic pattern of antitumor activities; also recorded: effective at inhibiting IDO1 activity and tumor progression"}, {"measurement": "kynurenine production in IDO2 expressing cells", "setting": "[2]", "result": "no changes in kynurenine levels"}, {"measurement": "inhibition of IDO2 activation of LIP", "setting": "[4]", "result": "to a lesser extent"}]}, {"smiles": "CN1C(=O)C(Cc2c[nH]c3ccccc23)NC1=S", "note": "(centres unmarked) [MTH, 5-(indol-3-methyl)-3-methyl-2-thio-Hydantoin]", "values": [{"measurement": "toxicity of inhibitor to the cells", "setting": "[6]", "result": "not toxic to the cells"}, {"measurement": "kynurenine production in IDO1 expressing cells", "setting": "[6]; doxycycline-induced T-REx cells, increasing concentrations, 5 days (FIG. 8A)", "result": "decrease in kynurenine production in the IDO1 expressing cells was observed in a dose dependent manner"}]}]}
